Drawing on ChEMBL document CHEMBL5291721, “A preclinical secondary pharmacology resource illuminates target-adverse drug reaction associations of marketed drugs” (Nat Commun, 2023), this text covers AC50 for 18 compounds.

Assay [1] deals with T1, Alpha-1A adrenergic receptor (Homo sapiens, UniProt P35348).
T1 sequence (P35348 whole entry): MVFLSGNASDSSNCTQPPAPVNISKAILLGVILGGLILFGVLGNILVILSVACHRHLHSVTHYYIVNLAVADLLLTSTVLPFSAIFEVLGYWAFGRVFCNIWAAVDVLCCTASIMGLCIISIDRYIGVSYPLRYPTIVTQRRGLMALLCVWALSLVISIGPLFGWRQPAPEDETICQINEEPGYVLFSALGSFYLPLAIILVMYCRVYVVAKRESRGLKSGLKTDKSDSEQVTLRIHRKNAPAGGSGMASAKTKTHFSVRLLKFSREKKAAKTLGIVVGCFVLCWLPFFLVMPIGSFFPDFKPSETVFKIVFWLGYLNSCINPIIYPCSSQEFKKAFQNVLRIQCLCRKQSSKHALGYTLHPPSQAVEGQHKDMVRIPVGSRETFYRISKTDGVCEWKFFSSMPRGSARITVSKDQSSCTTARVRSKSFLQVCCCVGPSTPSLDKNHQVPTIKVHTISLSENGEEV

Assay [2] concerns the target T2, Type-1 angiotensin II receptor (Homo sapiens, UniProt P30556).
T2 sequence (P30556 whole entry): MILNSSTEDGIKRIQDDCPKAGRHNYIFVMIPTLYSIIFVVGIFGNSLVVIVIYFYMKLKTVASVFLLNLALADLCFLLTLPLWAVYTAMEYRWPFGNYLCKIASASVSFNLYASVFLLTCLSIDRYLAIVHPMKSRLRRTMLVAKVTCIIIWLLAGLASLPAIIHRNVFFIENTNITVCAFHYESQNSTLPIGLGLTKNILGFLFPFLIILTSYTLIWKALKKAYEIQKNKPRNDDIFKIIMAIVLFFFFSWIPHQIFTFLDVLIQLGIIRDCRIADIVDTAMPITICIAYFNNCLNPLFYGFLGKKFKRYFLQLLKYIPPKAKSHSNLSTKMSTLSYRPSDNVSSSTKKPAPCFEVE

The next assay addresses Vasopressin V1a receptor (Homo sapiens, UniProt P37288).
In the next assay the target is T3, Estrogen receptor (Homo sapiens, UniProt P03372).
T3 sequence (P03372 whole entry): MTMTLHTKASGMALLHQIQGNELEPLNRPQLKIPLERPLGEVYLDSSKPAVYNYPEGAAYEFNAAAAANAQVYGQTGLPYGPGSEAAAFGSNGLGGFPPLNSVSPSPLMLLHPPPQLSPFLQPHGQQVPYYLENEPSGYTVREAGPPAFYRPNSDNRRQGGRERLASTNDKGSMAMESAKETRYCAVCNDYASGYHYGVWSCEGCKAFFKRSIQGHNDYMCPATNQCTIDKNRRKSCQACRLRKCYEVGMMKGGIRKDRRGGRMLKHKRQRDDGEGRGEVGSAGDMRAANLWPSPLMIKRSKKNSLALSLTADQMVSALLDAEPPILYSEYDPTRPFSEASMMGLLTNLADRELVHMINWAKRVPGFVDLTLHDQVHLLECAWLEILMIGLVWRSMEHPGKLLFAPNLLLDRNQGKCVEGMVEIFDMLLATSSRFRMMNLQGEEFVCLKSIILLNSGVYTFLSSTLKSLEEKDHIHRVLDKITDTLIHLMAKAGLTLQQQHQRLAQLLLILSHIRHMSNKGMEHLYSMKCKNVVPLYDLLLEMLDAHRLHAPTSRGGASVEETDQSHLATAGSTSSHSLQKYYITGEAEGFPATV

The target in assay [3] is Growth hormone secretagogue receptor type 1 (Homo sapiens, UniProt Q92847).
Chain of Growth hormone secretagogue receptor type 1 (Q92847 whole entry): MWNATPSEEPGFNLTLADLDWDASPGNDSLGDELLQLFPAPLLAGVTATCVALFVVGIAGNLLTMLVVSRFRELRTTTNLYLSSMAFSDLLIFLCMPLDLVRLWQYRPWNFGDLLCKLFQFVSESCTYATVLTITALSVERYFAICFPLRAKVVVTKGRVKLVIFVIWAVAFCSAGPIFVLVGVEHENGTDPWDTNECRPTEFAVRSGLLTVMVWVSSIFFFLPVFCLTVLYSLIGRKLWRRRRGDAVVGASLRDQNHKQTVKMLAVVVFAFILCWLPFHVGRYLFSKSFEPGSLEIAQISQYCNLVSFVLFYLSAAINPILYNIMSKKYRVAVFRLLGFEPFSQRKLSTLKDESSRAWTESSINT
The target of assay [4] is 5-hydroxytryptamine receptor 2A (Homo sapiens, UniProt P28223). It is filed as functional, cell-based.
Chain of 5-hydroxytryptamine receptor 2A (P28223 whole entry): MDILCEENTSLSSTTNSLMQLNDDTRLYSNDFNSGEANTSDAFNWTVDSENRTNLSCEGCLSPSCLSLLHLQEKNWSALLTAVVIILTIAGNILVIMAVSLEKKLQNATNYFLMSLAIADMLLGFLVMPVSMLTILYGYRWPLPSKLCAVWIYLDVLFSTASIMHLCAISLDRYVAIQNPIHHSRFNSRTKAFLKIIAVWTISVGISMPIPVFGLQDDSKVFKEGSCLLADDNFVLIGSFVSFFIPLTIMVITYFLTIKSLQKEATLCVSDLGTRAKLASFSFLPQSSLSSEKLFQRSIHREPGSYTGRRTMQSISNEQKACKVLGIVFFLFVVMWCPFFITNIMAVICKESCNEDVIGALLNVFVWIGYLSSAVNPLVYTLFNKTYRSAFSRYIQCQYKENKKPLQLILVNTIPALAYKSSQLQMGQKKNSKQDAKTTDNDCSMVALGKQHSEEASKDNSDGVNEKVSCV
The target in another assay is Melanocortin receptor 4 (Homo sapiens, UniProt P32245).
Chain of Melanocortin receptor 4 (P32245 whole entry): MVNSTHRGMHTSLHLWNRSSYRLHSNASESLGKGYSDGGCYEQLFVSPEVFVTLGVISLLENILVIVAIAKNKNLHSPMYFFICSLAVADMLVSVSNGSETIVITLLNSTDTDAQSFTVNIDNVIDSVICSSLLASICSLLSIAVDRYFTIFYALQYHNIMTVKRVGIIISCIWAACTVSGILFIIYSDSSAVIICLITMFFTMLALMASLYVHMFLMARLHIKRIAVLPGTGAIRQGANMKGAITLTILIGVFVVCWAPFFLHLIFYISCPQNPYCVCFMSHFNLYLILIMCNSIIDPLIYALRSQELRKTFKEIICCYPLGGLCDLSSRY
The target of assay [5] is T4, Neuropeptide Y receptor type 1 (Homo sapiens, UniProt P25929).
T4 sequence (P25929 whole entry): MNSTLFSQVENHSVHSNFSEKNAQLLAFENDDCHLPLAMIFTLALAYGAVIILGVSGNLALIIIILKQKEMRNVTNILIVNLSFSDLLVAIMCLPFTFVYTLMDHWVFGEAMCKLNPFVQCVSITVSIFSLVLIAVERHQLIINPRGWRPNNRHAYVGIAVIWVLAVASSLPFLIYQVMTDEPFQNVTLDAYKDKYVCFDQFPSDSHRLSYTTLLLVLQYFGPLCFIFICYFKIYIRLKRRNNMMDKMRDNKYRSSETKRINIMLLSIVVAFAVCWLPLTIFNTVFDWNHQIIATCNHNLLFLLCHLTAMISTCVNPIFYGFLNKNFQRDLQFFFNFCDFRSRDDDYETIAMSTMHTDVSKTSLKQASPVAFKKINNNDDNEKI

A further assay deals with Mu-type opioid receptor (Homo sapiens, UniProt P35372). Put plainly: biochemical. It is filed as functional.
Chain of Mu-type opioid receptor (P35372 whole entry): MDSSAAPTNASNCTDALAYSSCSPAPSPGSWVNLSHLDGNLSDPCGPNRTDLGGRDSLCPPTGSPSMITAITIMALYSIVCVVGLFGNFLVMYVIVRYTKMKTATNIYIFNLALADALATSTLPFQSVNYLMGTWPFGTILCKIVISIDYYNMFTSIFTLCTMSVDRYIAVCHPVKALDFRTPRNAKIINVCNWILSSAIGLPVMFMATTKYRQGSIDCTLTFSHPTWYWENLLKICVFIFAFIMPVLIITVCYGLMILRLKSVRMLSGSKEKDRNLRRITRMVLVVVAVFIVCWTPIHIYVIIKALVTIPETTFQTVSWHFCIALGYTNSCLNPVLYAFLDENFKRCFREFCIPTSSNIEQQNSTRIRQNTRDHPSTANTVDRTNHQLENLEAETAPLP
In assay [6] the target is T5, Equilibrative nucleoside transporter 1 (Homo sapiens, UniProt Q99808).
T5 sequence (Q99808 whole entry): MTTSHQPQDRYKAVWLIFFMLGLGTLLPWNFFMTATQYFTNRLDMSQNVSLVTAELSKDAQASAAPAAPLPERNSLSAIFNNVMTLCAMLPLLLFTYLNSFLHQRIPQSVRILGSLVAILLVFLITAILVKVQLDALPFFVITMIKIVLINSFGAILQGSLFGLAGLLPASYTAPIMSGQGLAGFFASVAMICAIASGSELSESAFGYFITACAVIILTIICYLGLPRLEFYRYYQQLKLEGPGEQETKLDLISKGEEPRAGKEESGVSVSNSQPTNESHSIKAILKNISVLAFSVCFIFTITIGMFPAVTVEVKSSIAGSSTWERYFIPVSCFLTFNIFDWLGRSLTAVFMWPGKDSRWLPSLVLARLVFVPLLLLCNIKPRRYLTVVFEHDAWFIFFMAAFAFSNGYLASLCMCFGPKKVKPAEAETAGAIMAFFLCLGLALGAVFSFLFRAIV

The target of a further assay is T6, Thromboxane A2 receptor (Homo sapiens, UniProt P21731).
T6 sequence (P21731 whole entry): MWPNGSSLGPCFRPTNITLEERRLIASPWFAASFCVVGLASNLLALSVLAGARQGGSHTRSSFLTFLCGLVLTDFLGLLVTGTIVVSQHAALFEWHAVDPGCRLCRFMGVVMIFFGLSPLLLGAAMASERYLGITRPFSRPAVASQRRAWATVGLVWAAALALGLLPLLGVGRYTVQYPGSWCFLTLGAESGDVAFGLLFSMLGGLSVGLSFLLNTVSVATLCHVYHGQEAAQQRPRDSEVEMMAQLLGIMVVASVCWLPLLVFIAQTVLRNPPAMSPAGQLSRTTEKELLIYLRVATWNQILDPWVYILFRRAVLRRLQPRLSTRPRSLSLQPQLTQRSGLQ

As usually defined, the AC50 is the concentration giving half of the maximal activity seen. A higher AC50 goes with activity only at high concentration.

The structures appear in SMILES notation.
Also: assay procedure not described here.

Chain of Vasopressin V1a receptor (P37288 whole entry): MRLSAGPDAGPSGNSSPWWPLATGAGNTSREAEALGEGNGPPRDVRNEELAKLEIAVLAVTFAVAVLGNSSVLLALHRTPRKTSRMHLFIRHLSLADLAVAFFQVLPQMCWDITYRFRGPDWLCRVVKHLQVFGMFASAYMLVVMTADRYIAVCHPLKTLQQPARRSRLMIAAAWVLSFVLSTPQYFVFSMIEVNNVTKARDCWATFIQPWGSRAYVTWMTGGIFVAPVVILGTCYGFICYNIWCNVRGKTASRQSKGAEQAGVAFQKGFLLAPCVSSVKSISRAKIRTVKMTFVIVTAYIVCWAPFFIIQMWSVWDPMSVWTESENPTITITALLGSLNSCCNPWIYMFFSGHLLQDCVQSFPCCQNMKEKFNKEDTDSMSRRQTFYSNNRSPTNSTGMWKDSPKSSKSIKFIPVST

In the case of `NC(=O)c1cccc2cn(-c3ccc([C@@H]4CCCNC4)cc3)nc12` [NIRAPARIB], half-maximal activity in assay [1] (AC50) was put at 29.4 µM.
As for `O=C(Nc1ccccc1)OCC(CN1CCCCC1)OC(=O)Nc1ccccc1` (stereo unspecified) [DIPERODON], the AC50 in assay [2] was more than 30 µM; at Vasopressin V1a receptor it was more than 10 µM; at Estrogen receptor, more than 30 µM; in assay [3], more than 30 µM; in [4], more than 30 µM; at Melanocortin receptor 4, more than 30 µM. In addition, the AC50 was more than 30 µM in assay [5], 4.1 µM on Mu-type opioid receptor, more than 30 µM in [6] and more than 30 µM at Thromboxane A2 receptor.
Turning to `NS(=O)(=O)c1cc2c(cc1Cl)NC(CC1CCCC1)NS2(=O)=O` (stereo unspecified) [CYCLOPENTHIAZIDE], the AC50 (in assay [1]; in assay [4]; at Mu-type opioid receptor) was more than 30 µM each time.
Turning to `Cn1cc[nH]c1=S` [METHIMAZOLE], the AC50 in [1] was more than 30 µM.
Same read-out and setting: under `Nc1nc(-n2cc(C(=O)O)c(=O)c3cc(F)c(N4CC(O)C4)c(Cl)c32)c(F)cc1F` [DELAFLOXACIN] stands more than 30 µM.
In the case of `Nc1ccc(/N=N/c2ccccc2)c(N)n1` [PHENAZOPYRIDINE], the results for the AC50 in assay [1] and in assay [4] were 23.4 µM and more than 30 µM, respectively.
`O=C(O)CCn1c2c(c3ccccc31)C[C@H](NS(=O)(=O)c1ccc(F)cc1)CC2` [RAMATROBAN]: the AC50 in [2] is more than 30 µM; on Vasopressin V1a receptor, more than 30 µM; at Estrogen receptor it was more than 30 µM; in assay [3], more than 30 µM; in assay [4], more than 10 µM; on Melanocortin receptor 4 it was more than 30 µM. Moreover, the AC50 in assay [5] is more than 30 µM; on Mu-type opioid receptor, more than 30 µM; in assay [6], more than 30 µM; at Thromboxane A2 receptor it was 0.0311 µM.
Turning to `CO/N=C(\C(=O)N[C@@H]1C(=O)N2C(C(=O)OCOC(=O)C(C)(C)C)=C(C)CS[C@H]12)c1csc(N)n1`, the AC50 (in assay [1]; in assay [4]; at Mu-type opioid receptor) was more than 30 µM in each case.
As for `COCC1=C(C(=O)OC(C)OC(=O)OC(C)C)N2C(=O)[C@@H](NC(=O)/C(=N\OC)c3csc(N)n3)[C@H]2SC1` (stereo partly specified) [CEFPODOXIME PROXETIL], the AC50 (in assay [1]; in assay [4]; at Mu-type opioid receptor) was more than 30 µM each time.
With `CC(=O)N[C@H]1[C@H]([C@H](O)[C@H](O)CO)OC(C(=O)O)=C[C@@H]1N=C(N)N` [ZANAMIVIR], the AC50 (in assay [2]; at Vasopressin V1a receptor; at Estrogen receptor; in [3]; in assay [4]; at Melanocortin receptor 4) was more than 30 µM throughout. In addition, the AC50 (in assay [5]; at Mu-type opioid receptor; in assay [6]; on Thromboxane A2 receptor) was more than 30 µM throughout.
`CN1C(=O)N(C)C2C1N(C)C(=O)N2C` (stereo unspecified) [MEBICAR]: the AC50 in assay [1] and in assay [4] was more than 30 µM each time.
On to `O=C(Cn1ccnc1[N+](=O)[O-])NCc1ccccc1` [BENZNIDAZOLE], for which the AC50 (in assay [1]; in [2]; at Vasopressin V1a receptor; at Estrogen receptor; in [3]; in assay [4]) was more than 30 µM throughout. The AC50 (in assay [5]; at Mu-type opioid receptor; in assay [6]; at Thromboxane A2 receptor) was more than 30 µM each time.
Consider `CN(C)CCCN1c2ccccc2Sc2ccccc21` [PROMAZINE], for which the AC50 was more than 10 µM in assay [2]; more than 10 µM at Vasopressin V1a receptor; more than 30 µM in assay [3]; more than 30 µM at Melanocortin receptor 4; more than 30 µM in [5]; 2.9 µM on Mu-type opioid receptor. For the same compound, the AC50 (in assay [6]; at Thromboxane A2 receptor) was more than 30 µM throughout.
As to `N/N=c1/cc2c(n[nH]1)CCN(C(=O)c1ccccc1)C2` [ENDRALAZINE], the AC50 (in assay [1]; in [4]; on Mu-type opioid receptor) was more than 30 µM throughout.
On to `CC1=NN(c2ccccc2)C(=O)C1` [EDARAVONE], for which, in assay [1], the AC50 is more than 30 µM.
Turning to `O=P(O)(O)C(O)(Cc1cccnc1)P(=O)(O)O` [RISEDRONIC ACID], the AC50 (in assay [2]; at Vasopressin V1a receptor; at Estrogen receptor; in assay [3]; at Melanocortin receptor 4; in assay [5]) was more than 30 µM throughout. Besides, the AC50 (at Mu-type opioid receptor; in [6]; on Thromboxane A2 receptor) was more than 30 µM in each case.
Regarding `CC(C)=CCC1C(=O)N(c2ccccc2)N(c2ccccc2)C1=O` [FEPRAZONE], in assay [1], the AC50 was more than 30 µM.
For the compound `C[N+](C)(C)CCOC(N)=O` [CARBAMOYLCHOLINE], the AC50 in [2] was more than 10 µM; at Vasopressin V1a receptor, more than 10 µM; in assay [3], more than 10 µM; on Melanocortin receptor 4, more than 10 µM; in assay [5], more than 10 µM; on Mu-type opioid receptor it was more than 30 µM. Moreover, the AC50 (in [6]; at Thromboxane A2 receptor) was more than 10 µM in each case.
